According to patent publication US20220025036A1, “USE OF IL-1BETA BINDING ANTIBODIES” (NOVARTIS AG, priority 2018, published 2022):
Blank lines part the entries; values can stand above or below the molecule they belong to.

Tests used:
[1] = test system: high-sensitivity C-reactive protein (hsCRP); settings: 50, 150, 300 mg s.c. every 3 months, dose-dependent; median follow-up 3.7 years; cited from earlier work
interleukin 6 = settings: 50, 150, 300 mg s.c. every 3 months, dose-dependent; median follow-up 3.7 years; cited from earlier work
bone vasculature = experiment: Bone microvasculature after IL-1 blockade in mice (CD34 staining, ELISA for endothelin 1 and VEGF); type: in vivo, mouse; settings: for average length of CD34+ blood vessels in trabecular bone: IL-1Ra in BALB/c nude mice, canakinumab in C57BL/6 mice; for average length of CD34+ blood vessels in trabecular bone / endothelin 1 concentration (ELISA) vs control: p<0.01; for VEGF concentration (ELISA) vs control / endothelin 1 concentration (ELISA) vs control: bone marrow; for VEGF concentration (ELISA) vs control: IL-1R antagonist p<0.01, canakinumab p<0.001
Method: FIG. 7. IL-1β in the bone microenvironment stimulates expansion of the bone metastatic niche. Effects of adding 40 pg/ml or 5 ng/ml recombinant IL-1β to MDA-MB-231 or T47D breast cancer cells is shown in (a) and effects on adding 20 pg/ml, 40 pg/ml or 5 ng/ml IL-1B on proliferation of HS5, bone marrow, or OB1, osteoblasts, are shown in b) and c) respectively. (d) IL-1 driven alterations to the bone vasculature was measured following CD34 staining in the trabecular region of the tibiae from 10-12-week old female IL-1R1 knockout mice. […] Data are shown as mean+/−SEM, *=P<0.01, **=P<0.001, ***=P<0.0001.
FIG. 8. Suppression of IL-1 signalling affects bone integrity and vasculature. […] Data shown are mean+/−SEM, *=P<0.01, **=P<0.001, ***=P<0.0001 compared with control.
(§1) Tumor cells, serum, and bone were subsequently resected for downstream analysis.

[2] = test system: MDA-MB-231Luc2-TdTomato cells; experiment: Spontaneous human breast cancer metastasis to human bone implants in NOD SCID mice; type: in vivo, mouse; settings: for size of bone metastases vs control group: FIG. 4a; for mice with metastasis detected in human bone implants: n=10/group, IL-1Ra 1 mg/kg daily, canakinumab 10 mg/kg s.c. every 14 days from day 7, control 7 out of 10; for tumor cells counted in whole blood: placebo 108 tumor cells/ml
Method: FIG. 4. Pharmacological blockade of IL-1β inhibits spontaneous metastasis to human bone in vivo. Female NOD-SCID mice bearing two 0.5 cm^3 pieces of human femoral bone received intra-mammary injections of MDA-MB-231Luc2-TdTomato cells. […] All animals were culled 35 days following tumour cell injection. Effects on bone metastases (a) were assessed in vivo and immediately post-mortem by luciferase imaging and confirmed ex vivo on histological sections. Data are shown as numbers of photons per second emitted 2 minutes following sub-cutaneous injection of D-luciferin. Effects on numbers of tumour cells detected in the circulation are shown in (b). *=P<0.01, **=P<0.001, ***=P<0.0001.
To model human breast cancer metastasis to human bone implants two human bone discs were implanted subcutaneously into 10-week old female NOD SCID mice (n=10/group) under isofluorane anaesthetic. Mice received an injection of 0.003 mg vetergesic and Septrin was added to the drinking water for 1 week following bone implantation. Mice were left for 4 weeks before injecting 1×10^5 MDA-MB-231 Luc2-TdTomato, MCF7 Luc2 or T47D Luc2 cells in 20% Martigel/79% PBS/1% […] into the two hind mammary fat pads. Primary tumor growth and development of metastases was monitored weekly using an IVIS […] system (Caliper Life Sciences) following sub-cutaneous injection of 30 mg/ml D-luciferin (Invitrogen). On termination of experiments mammary tumors, circulating tumor cells, serum and bone metastases were resected. RNA was processed for downstream analysis by real time PCR, and cell lysates were taken for protein analysis and whole tissue for histology as previously described (Nutter et al., 2014; Ottewell et al., 2014a).
as §1
Whole blood was centrifuged at 10,000×g for 5 minutes and the serum removed for ELISA assays. The cell pellet was re-suspended in 5 ml of FSM lysis solution (Sigma-Aldrich, Pool, UK) to lyse red blood cells. Remaining cells were re-pelleted, washed 3× in PBS and re-suspended in a solution of PBS/10% FCS. Samples from 10 mice per group were pooled prior to isolation of TdTomato positive tumor cells using a MoFlow High performance cell sorter (Beckman Coulter, Cambridge UK) with the […] laser line from a Coherent I-90C tenable argon ion (Coherent, Santa Clara, Calif.). TdTomato fluorescence was detected by a 555LP dichroic long pass and a 580/30 nm band pass filter. Acquisition and analysis of cells was performed using Summit 4.3 software. Following sorting cells were immediately placed in RNA protect cell reagent (Ambion, Paisley, Renfrew, UK) and stored at −80° C. before RNA extraction. For counting numbers of circulating tumor cells, TdTomato fluorescence was detected using a 561 nm laser and an YL1-A filter (585/16 emission filter). Acquisition and analysis of cells was performed using Attune N×T software.

mouse IL-1β = mouse IL-1β (Mus musculus, UniProt P10749); experiment: Cross-reactivity with mouse IL-1β; type: binding
4T1 tumors [3] = experiment: 4T1 tumors treated with 01BSUR and docetaxel, tumor burden; type: in vivo, mouse; settings: 4T1 s.c., treated days 8 and 15 post implant
Method: FIG. 16. Mice were implanted with 4T1 cells sc and treated with the indicated treatments on days 8 and 15 post tumor implant. There were 10 mice in each group.
(§2) Female Balb/c mice with 4T1 tumors implanted subcutaneously (s.c.) on the right flank were treated 8 and 15 days post-tumor implant initiating when the tumors reached about 100 mm^3 with the isotype antibody, docetaxel, 01BSUR, or a combination of docetaxel and 01BSUR. […] 5 days after the first dose, tumors were harvested and analyzed for changes to the infiltrating immune cell populations. This was done again at the end point of the study, 4 days after the second dose.

4T1 tumors [4] = experiment: TIL analysis of 4T1 tumors after docetaxel and 01BSUR; type: in vivo, mouse
Method: as §2

LL2 = experiment: Anti-IL-1β in combination with docetaxel in aggressive lung model (LL2); type: in vivo, mouse; settings: LL2, FIG. 15A
CML LSC = settings: recombinant IL-1RA; cited from earlier work
[5] = Gevokizumab clinical pharmacokinetics; type: in vivo, human; settings: subcutaneous administration
hsCRP = experiment: Gevokizumab clinical hsCRP reduction in type 2 diabetes patients; type: in vivo, human; settings: top dose 0.3 mg/kg (~20 mg) Q4W
Text: FIG. 12. Clinical data after gevokizumab treatment (panel a) and its extrapolation to higher doses (panels b, c, and d). Adjusted percent change from baseline in hsCRP in patients in a). The hsCRP exposure-response relationship is shown in b) for six different hsCRP base line concentrations.

mouse IL-1β, sequence (P10749 118-269): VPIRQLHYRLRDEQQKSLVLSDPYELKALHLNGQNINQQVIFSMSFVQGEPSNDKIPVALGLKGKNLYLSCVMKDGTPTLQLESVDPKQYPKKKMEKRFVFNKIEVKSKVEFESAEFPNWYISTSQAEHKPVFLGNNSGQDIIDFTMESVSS

cross-reactivity with mouse IL-1β (mouse IL-1β): does not cross-react
Molecule: canakinumab: high-affinity, fully human monoclonal antibody of the IgG1/k to interleukin-1β (SEQ ID NO:17 and 18)
reductions in concentrations of hsCRP compared with placebo [1]: 26-41% | reductions in concentrations of interleukin 6 compared with placebo (interleukin 6): 25-43% | average length of CD34+ blood vessels in trabecular bone (bone vasculature): reduced | VEGF concentration (ELISA) vs control (bone vasculature): reduced concentrations | endothelin 1 concentration (ELISA) vs control (bone vasculature): reduced concentrations | size of bone metastases vs control group [2]: smaller | mice with metastasis detected in human bone implants [2]: 1 out of 10 | tumor cells counted in whole blood [2]: 3 tumor cells/ml

Molecule: CC(=O)O[C@@]12CO[C@@H]1C[C@H](O)[C@@]1(C)C(=O)[C@H](O)C3=C(C)[C@@H](OC(=O)[C@H](O)[C@@H](NC(=O)OC(C)(C)C)c4ccccc4)C[C@@](O)([C@@H](OC(=O)c4ccccc4)[C@H]21)C3(C)C [docetaxel]
tumor growth vs vehicle/isotype control (4T1 tumors [3]): enhanced | CD4+ and CD8+ T cells expressing TIM-3 vs control (4T1 tumors [4]; 4 days after a second dose): no change | granulocytic MDSC in 4T1 tumors (4T1 tumors [4]; 5 days after a single dose): decrease | monocytes in 4T1 tumors vs vehicle/isotype (4T1 tumors [4]; 5 days after a single dose): decrease | monocytic MDSC in 4T1 tumors (4T1 tumors [4]; 5 days after a single dose): decrease | neutrophils in 4T1 tumors (4T1 tumors [4]; 5 days after a single dose): decrease | efficacy (tumor growth) (LL2): modest efficacy

Molecule: IL-1Ra: recombinant IL-1 receptor antagonist (Anakinra)
average length of CD34+ blood vessels in trabecular bone (bone vasculature): reduced | VEGF concentration (ELISA) vs control (bone vasculature): reduced concentrations | endothelin 1 concentration (ELISA) vs control (bone vasculature): reduced concentrations | growth of CML LSC (CML LSC): inhibited growth | size of bone metastases vs control group [2]: smaller | mice with metastasis detected in human bone implants [2]: 4 out of 10 | tumor cells counted in whole blood [2]: 3 tumor cells/ml

Molecule: gevokizumab: high-affinity, humanized monoclonal antibody of the IgG2 isotype to interleukin-1β (SEQ ID NO:19 and 20)
Bioavailability [5]: about 56% | reduction of hsCRP (hsCRP): up to 45%
